Laboratory results as given in patent US7662819B2, “Pteridinone derivatives for use as stearoyl CoA desaturase inhibitors” (Gilead Palo Alto, Inc., priority 2007, dated 2010).

What follows are compounds tested against T1, stearoyl-CoA desaturase (SCD) (Rattus norvegicus, UniProt P07308) (assay: SCD assay in rat liver microsomes ([3H]stearoyl CoA desaturation, adapted from Talamo and Bloch)). Details: rat liver microsomes 0.2 mg/ml assay final, 30 min preincubation, 45 min reaction, room temperature.
T1 construct: from tissue; host or cells: liver microsomes of male Sprague Dawley rats, with SCD induced by a carbohydrate-rich diet after fasting/feeding cycles
T1 sequence (P07308 1-358): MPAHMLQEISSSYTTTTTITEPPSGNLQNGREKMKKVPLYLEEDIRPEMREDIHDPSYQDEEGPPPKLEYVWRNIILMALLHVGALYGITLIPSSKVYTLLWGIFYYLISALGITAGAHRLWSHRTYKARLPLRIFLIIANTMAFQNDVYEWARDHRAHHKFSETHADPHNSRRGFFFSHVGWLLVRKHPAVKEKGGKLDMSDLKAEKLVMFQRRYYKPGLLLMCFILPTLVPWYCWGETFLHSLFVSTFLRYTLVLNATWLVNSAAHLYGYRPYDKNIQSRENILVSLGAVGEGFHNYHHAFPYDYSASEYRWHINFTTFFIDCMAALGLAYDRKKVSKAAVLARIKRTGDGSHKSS
Format: biochemical
From the text: The identification of compounds of the invention as SCD inhibitors was readily accomplished using the SCD enzyme and microsomal assay procedure described in Talamo and Bloch (1969) Analytical Biochemistry 29:300-304.
The rat liver microsomes were collected according to the procedure described in Ozols (1990) Methods Enzm, 182:225.
Male Spraque Dawley Rats were placed on regimented fasting protocol for one week to stimulate SCD enzymatic activity. 48-hour periods were alternated between feeding and fasting to induce and down-regulate SCD activity with SCD activity being induced via carbohydrate rich diet prior to liver perfusion and collection.
The rats were anesthetized with Isoflurane inhalation anesthetic, the liver perfused with cold phosphate buffered saline (PBS), weighed, and chilled in cold homogenization buffer (250 mM sucrose, 10 mM Tris, 1 mM EDTA, pH 7.6.
The livers were finely minced and placed in homogenization tube. 40 mL of homogenization buffer was added to the homogenization tube and the liver homogenized and centrifuged in a pre-chilled […] for 10 min at 4° C.
Following centrifugation, the supernatant was collected and the pellet removed and discarded. The supernatant was centrifuge at 10,000 G for 35 minutes. Following centrifugation, the supernatant was collect and the pellet discarded. The supernatant was then centrifuged in a pre-chilled 45-Ti rotor at 130,000 G (41,000 RPM) for 90 minutes at 4° C.
The supernatant was then aspirated off and the collected microsomal pellet washed in 25 mL of Glycerol PBS (1×PBS 7.4, 20% Glycerol) and resuspended in 4-5 volumes of Glycerol PBS.
The protein concentration of the microsomal preparation was determined by BCA assay (Pierce) and the microsomes were aliquoted and stored at −80° C.
Biobeads were ground to a smaller size in a mortar and pestle and resuspended in 3.6% TCA. The beads were then filtered through […] mesh.
SCD was determined in the desaturase assay buffer. This assay buffer contained 0.1 M Tris buffer, pH 7.2, 2 mM NADH, 4.8 mM ATP, 0.5 mM CoA, 4.8 mM MgCl2, and 0.1% BSA.
The Procedure for the SCD Assay (Adapted from Talamo and Bloch (1969) Analytical Biochemistry 29:300-304)
1 μl of each compound of Formula I was added to an assay plate by a low volume (0.5-10 μL) multichannel pipette. A DMSO control was also prepared. The microsomes were quickly thawed and added to assay buffer so that a concentration of 0.4 mg/ml was achieved (0.2 mg/ml assay final). 50 μl of the microsome suspension in assay buffer was then added into each well in the compound assay plate, the plate was covered, and the microsomes preincubated with the compounds for 30 minutes on the orbital shaker, 50-75 rpm, at room temperature.
After preincubation, the reaction was initiated by the addition of 50 μl of substrate solution (20 μM Stearoyl CoA, [3H]Stearoyl CoA, 74 nCi) to the preincubated microsomes/compound suspensions in MilliQ (Millipore) H2O. The reaction mixtures were then incubated for 45 minutes on the orbital shaker at 50-75 rpm at room temperature.
The reaction was terminated by the addition of 10 μl of 21% […] (TCA) to the reaction mixture followed incubation on the orbital shaker for 30 minutes at 50-75 rpm at room temperature followed by centrifugation for 5 minutes at 3700 rpm.
50 μl of a 6% Bio-Bead suspension in H2O was added to the reaction mixture and the assay plate was sealed. The Bio-Bead mixture was incubated on the orbital shaker for 1 hour, 100-150 rpm at room temperature, and then the mixture was centrifuged at 2000 g for 5 minutes to pellet the Bio-Beads.
25 μl of the supernatant was harvested from each well and transferred to a detection plate. 100 μl of OptiPhase SuperMix scinitillation cocktail (containing sufficient NaOH to neutralize the TCA) was added and the solutions mixed by vigorous shaking (300-400 rpm) for 5 minutes at room temperature. […]

| Compound | IC50 [nM] |
| --- | --- |
| COc1ccc(-c2nc3cnc(NCc4ccc(Cl)c(Cl)c4)nc3n(CCNC(C)=O)c2=O)cc1 [Compound 1, N-[2-(2-{[(3,4-dichlorophenyl)methyl]amino}-6-(4-methoxyphenyl)-7-oxo-8-hydropteridin-8-yl)ethyl]acetamide] | 160 |
| COc1ccc(-c2nc3cnc(NCc4ccc(Cl)c(Cl)c4)nc3n(CCNS(C)(=O)=O)c2=O)cc1 [Compound 2, 2-{[(3,4-dichlorophenyl)methyl]amino}-6-(4-methoxyphenyl)-8-{2-[(methylsulfonyl)amino]ethyl}-8-hydropteridin-7-one] | 2800 |
| COc1ccc(-c2nc3cnc(NCc4ccc(Cl)c(Cl)c4)nc3n([C@@H]3CCNC3)c2=O)cc1 [Compound 3, 8-((3R)pyrrolidin-3-yl)-2-{[(3,4-dichlorophenyl)methyl]amino}-6-(4-methoxyphenyl)-8-hydropteridin-7-one] | 5000 |
| COc1ccc(-c2nc3cnc(NCc4ccc(Cl)c(Cl)c4)nc3n(CCNC(=O)c3cccnc3)c2=O)cc1 [Compound 4, N-[2-(2-{[(3,4-dichlorophenyl)methyl]amino}-6-(4-methoxyphenyl)-7-oxo(8-hydropteridin-8-yl))ethyl]-3-pyridylcarboxamide] | 1600 |
| CCCC(=O)NCCn1c(=O)c(-c2ccc(OC)cc2)nc2cnc(NCc3ccc(Cl)c(Cl)c3)nc21 [Compound 5, N-[2-(2-{[(3,4-dichlorophenyl)methyl]amino}-6-(4-methoxyphenyl)-7-oxo-8-hydropteridin-8-yl)ethyl]butanamide] | 18000 |
| CCC(=O)NCCn1c(=O)c(-c2ccc(OC)cc2)nc2cnc(NCc3ccc(Cl)c(Cl)c3)nc21 [Compound 6, N-[2-(2-{[(3,4-dichlorophenyl)methyl]amino}-6-(4-methoxyphenyl)-7-oxo-8-hydropteridin-8-yl)ethyl]propanamide] | 2800 |
| COc1ccc(-c2nc3cnc(NCc4ccc(Cl)c(Cl)c4)nc3n(CCNC(=O)c3ccccc3)c2=O)cc1 [Compound 7, N-[2-(2-{[(3,4-dichlorophenyl)methyl]amino}-6-(4-methoxyphenyl)-7-oxo(8-hydropteridin-8-yl))ethyl]benzamide] | 560 |
| COCC(=O)NCCn1c(=O)c(-c2ccc(OC)cc2)nc2cnc(NCc3ccc(Cl)c(Cl)c3)nc21 [Compound 8, N-[2-(2-{[(3,4-dichlorophenyl)methyl]amino}-6-(4-methoxyphenyl)-7-oxo(8-hydropteridin-8-yl))ethyl]-2-methoxyacetamide] | 1800 |
| CC(=O)NCCn1c(=O)c(-c2cccnc2)nc2cnc(NCc3ccccc3)nc21 [Compound 9, N-(2-{7-oxo-2-[benzylamino]-6-(3-pyridyl)-8-hydropteridin-8-yl}ethyl)acetamide] | 2600 |
| COc1ccc(-c2nc3cnc(NCc4ccc(F)cc4)nc3n(CCNC(C)=O)c2=O)cc1 [Compound 10, N-[2-(2-{[(4-fluorophenyl)methyl]amino}-6-(4-methoxyphenyl)-7-oxo-8-hydropteridin-8-yl)ethyl]acetamide] | 1300 |
| CC(=O)NCCn1c(=O)c(-c2cccnc2)nc2cnc(NCc3ccc(F)cc3)nc21 [Compound 11, N-[2-(2-{[(4-fluorophenyl)methyl]amino}-7-oxo-6-(3-pyridyl)-8-hydropteridin-8-yl)ethyl]acetamide] | 5700 |
| CC(=O)NCCn1c(=O)c(-c2cccnc2)nc2cnc(NCc3ccc(Cl)c(Cl)c3)nc21 [Compound 12, N-[2-(2-{[(3,4-dichlorophenyl)methyl]amino}-7-oxo-6-(3-pyridyl)-8-hydropteridin-8-yl)ethyl]acetamide] | 230 |
| CC(=O)NCCn1c(=O)c(C(F)(F)F)nc2cnc(NCc3ccc(Cl)c(Cl)c3)nc21 [Compound 13, N-[2-(2-{[(3,4-dichlorophenyl)methyl]amino}-7-oxo-6-(trifluoromethyl)-8-hydropteridin-8-yl)ethyl]acetamide] | 2100 |
| CC(=O)NCCn1c(=O)c(-c2cccs2)nc2cnc(NCc3ccc(Cl)c(Cl)c3)nc21 [Compound 14, N-[2-(2-{[(3,4-dichlorophenyl)methyl]amino}-7-oxo-6-(2-thienyl)-8-hydropteridin-8-yl)ethyl]acetamide] | 2000 |
| O=c1c(-c2cccnc2)nc2cnc(NCc3ccc(Cl)c(Cl)c3)nc2n1CCn1cncn1 [Compound 15, 2-{[(3,4-dichlorophenyl)methyl]amino}-6-(3-pyridyl)-8-(2-(1,2,4-triazolyl)ethyl)-8-hydropteridin-7-one] | 5800 |
| COc1ccc(-c2nc3cnc(NCc4ccc(Cl)c(Cl)c4)nc3n(CCNC(=N)N)c2=O)cc1 [Compound 16, amino[2-(2-{[(3,4-dichlorophenyl)methyl]amino}-6-(4-methoxyphenyl)-7-oxo(8-hydropteridin-8-yl))ethyl]carboxamidine] | 11000 |
| CC(=O)NCCn1c(=O)cnc2cnc(NCc3ccc(Cl)c(Cl)c3)nc21 [Compound 17, N-[2-(2-{[(3,4-dichlorophenyl)methyl]amino}-7-oxo-8-hydropteridin-8-yl)ethyl]acetamide] | 340 |
| COc1ccc(-c2nc3cnc(NCc4ccc(F)c(F)c4)nc3n(CCNC(C)=O)c2=O)cc1 [Compound 18, N-[2-(2-{[(3,4-difluorophenyl)methyl]amino}-6-(4-methoxyphenyl)-7-oxo-8-hydropteridin-8-yl)ethyl]acetamide] | 13000 |
| CC(=O)NCCn1c(=O)c(-c2cccs2)nc2cnc(NCc3ccc(F)c(F)c3)nc21 [Compound 19, N-[2-(2-{[(3,4-difluorophenyl)methyl]amino}-7-oxo-6-(2-thienyl)-8-hydropteridin-8-yl)ethyl]acetamide] | 3400 |
| CC(=O)NCCn1c(=O)c(C(F)(F)F)nc2cnc(NCc3ccc(F)cc3)nc21 [Compound 20, N-[2-(2-{[(4-fluorophenyl)methyl]amino}-7-oxo-6-(trifluoromethyl)-8-hydropteridin-8-yl)ethyl]acetamide] | 22000 |
| CC(=O)NCCn1c(=O)c(-c2ncccn2)nc2cnc(NCc3ccc(Cl)c(Cl)c3)nc21 [Compound 21, N-[2-(2-{[(3,4-dichlorophenyl)methyl]amino}-7-oxo-6-pyrimidin-2-yl-8-hydropteridin-8-yl)ethyl]acetamide] | 4340 |
| COc1ccc(-c2nc3cnc(NCc4ccc(Cl)c(Cl)c4)nc3n(CCNC(C)=O)c2=O)cc1F [Compound 22, N-[2-(2-{[(3,4-dichlorophenyl)methyl]amino}-6-(3-fluoro-4-methoxyphenyl)-7-oxo-8-hydropteridin-8-yl)ethyl]acetamide] | 2210 |
| COc1ccc(-c2nc3cnc(NCc4ccc(Cl)c(Cl)c4)nc3n(CCNC(=O)c3ccsc3)c2=O)cc1 [Compound 23, N-[2-(2-{[(3,4-dichlorophenyl)methyl]amino}-6-(4-methoxyphenyl)-7-oxo(8-hydropteridin-8-yl))ethyl]-3-thienylcarboxamide] | 470 |
| COc1ccc(-c2nc3cnc(NCc4cccc(Cl)c4)nc3n(CCNC(C)=O)c2=O)cc1 [Compound 24, N-[2-(2-{[(3-chlorophenyl)methyl]amino}-6-(4-methoxyphenyl)-7-oxo-8-hydropteridin-8-yl)ethyl]acetamide] | 1300 |
